Measurements reported in patent publication US20250249012A1, “COMPOSITIONS AND METHODS FOR TREATING AND/OR PREVENTING A VIRAL INFECTION” (priority 2022, published 2025).
Counter-ions that a name gives are not always drawn.

Tested on: SARS-CoV-2 beta variant
Experiment: […]; lung PCR and histopathology
Format: in vivo, BALB C mice

Compound	antiviral effect upon sole administration (Apilimod dimesylate alone)	antiviral effect of single drug (mouse, in vivo)	antiviral effect upon sole administration (Nafamostat mesylate alone)	reduction of infection (PCR) by single drug (mouse, in vivo)
N-[(E)-(3-methylphenyl)methylidencamino]-6-morpholin-4-yl-2-(2-pyridin-2-ylethoxy)pyrimidin-4-amine [Apilimod dimesylate]	lack of antiviral effect	no antiviral effect		
N=C(N)c1ccc2cc(OC(=O)c3ccc(N=C(N)N)cc3)ccc2c1 [Nafamostat mesylate]		no effect	partial antiviral inhibitory effect	5-10 fold
